Measured values published in PubChem BioAssay (NCI).
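Compound exposure: 48 hours, 5 concentrations, 96-well plates. Here, GI50 denotes the concentration required for 50% inhibition of growth. At the TGI there is no net growth.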

Key:
Assay in all cases: inhibition of tumour cell growth, NCI panel, 48 h
NCI-H226 lung = test system: NCI-H226 lung
MOLT-4 leukemia = test system: MOLT-4 leukemia
786-0 renal = test system: 786-0 renal
CAKI-1 renal = test system: CAKI-1 renal
OVCAR-4 ovarian = test system: OVCAR-4 ovarian
U251 CNS = test system: U251 CNS
SF-295 CNS = test system: SF-295 CNS
A498 renal = test system: A498 renal
OVCAR-8 ovarian = test system: OVCAR-8 ovarian
SK-MEL-5 melanoma = test system: SK-MEL-5 melanoma

CCOc1ccc(NC(=O)/C(=C/c2ccccc2)C(C)=O)cc1
TGI (NCI-H226 lung): 32.4 µM | TGI (MOLT-4 leukemia): 19.5 µM | TGI (786-0 renal): 24.8 µM | TGI (CAKI-1 renal): 25.3 µM | TGI (OVCAR-4 ovarian): 27.5 µM | TGI (U251 CNS): 28.5 µM | TGI (SF-295 CNS): 29.4 µM | TGI (A498 renal): 35.3 µM | TGI (OVCAR-8 ovarian): 43.1 µM | TGI (SK-MEL-5 melanoma): 25.6 µM

c1ccc(COc2ccc(Nc3ncnc4ccc(-c5ccco5)cc34)cc2)cc1
GI50 (NCI-H226 lung): 5.73 µM | TGI (NCI-H226 lung): > 21.5 µM | GI50 (MOLT-4 leukemia): 11.7 µM | TGI (MOLT-4 leukemia): > 25 µM | GI50 (786-0 renal): 4.91 µM | TGI (786-0 renal): 12.9 µM | GI50 (CAKI-1 renal): 2.19 µM | TGI (CAKI-1 renal): > 25 µM | GI50 (OVCAR-4 ovarian): 4.69 µM | TGI (OVCAR-4 ovarian): 17.1 µM | GI50 (U251 CNS): 6.99 µM | TGI (U251 CNS): > 25 µM | GI50 (SF-295 CNS): 8.62 µM | TGI (SF-295 CNS): > 25 µM | GI50 (A498 renal): 5.39 µM | TGI (A498 renal): > 21.6 µM | GI50 (OVCAR-8 ovarian): 11.3 µM | TGI (OVCAR-8 ovarian): > 25 µM | GI50 (SK-MEL-5 melanoma): 2.96 µM | TGI (SK-MEL-5 melanoma): 6.79 µM

Fc1cccc(C=NC23CC4CC(CC(C4)C2)C3)c1
TGI (NCI-H226 lung): > 100 µM | TGI (MOLT-4 leukemia): > 100 µM | TGI (786-0 renal): > 100 µM | TGI (CAKI-1 renal): > 100 µM | TGI (OVCAR-4 ovarian): > 100 µM | TGI (U251 CNS): > 100 µM | TGI (SF-295 CNS): > 100 µM | TGI (A498 renal): > 100 µM | TGI (OVCAR-8 ovarian): > 100 µM

Cc1nc(N=C(N)N)nc2ccc3ccccc3c12
GI50 (NCI-H226 lung): 1.29 µM | TGI (NCI-H226 lung): 3.58 µM | GI50 (MOLT-4 leukemia): 1.37 µM | TGI (MOLT-4 leukemia): 3.62 µM | GI50 (786-0 renal): 1.11 µM | TGI (786-0 renal): 3.01 µM | GI50 (CAKI-1 renal): 2.5 µM | TGI (CAKI-1 renal): 10.9 µM | GI50 (OVCAR-4 ovarian): 1.44 µM | TGI (OVCAR-4 ovarian): 5.1 µM | GI50 (U251 CNS): 0.676 µM | TGI (U251 CNS): 2.29 µM | GI50 (SF-295 CNS): 1.03 µM | TGI (SF-295 CNS): 4.43 µM | GI50 (A498 renal): 1.54 µM | TGI (A498 renal): 3.23 µM | GI50 (OVCAR-8 ovarian): 0.811 µM | TGI (OVCAR-8 ovarian): 3.91 µM | GI50 (SK-MEL-5 melanoma): 1.51 µM | TGI (SK-MEL-5 melanoma): 3.32 µM

CC(=O)[CH-]C(=O)c1ccccc1.CC(=O)[CH-]C(=O)c1ccccc1.[O-]Cc1cccs1.[O-]Cc1cccs1.[Ti+4]
GI50 (NCI-H226 lung): 82.3 µM | TGI (NCI-H226 lung): > 100 µM | GI50 (MOLT-4 leukemia): > 100 µM | TGI (MOLT-4 leukemia): > 100 µM | GI50 (786-0 renal): > 100 µM | TGI (786-0 renal): > 100 µM | GI50 (CAKI-1 renal): 71.6 µM | TGI (CAKI-1 renal): > 100 µM | GI50 (OVCAR-4 ovarian): > 100 µM | TGI (OVCAR-4 ovarian): > 100 µM | GI50 (U251 CNS): > 100 µM | TGI (U251 CNS): > 100 µM | GI50 (SF-295 CNS): 10.6 µM | TGI (SF-295 CNS): 71.9 µM | GI50 (A498 renal): > 100 µM | TGI (A498 renal): > 100 µM | GI50 (OVCAR-8 ovarian): > 100 µM | TGI (OVCAR-8 ovarian): > 100 µM | GI50 (SK-MEL-5 melanoma): > 100 µM | TGI (SK-MEL-5 melanoma): > 100 µM

C=C1C(=O)C23C(O)C1CCC2C12CO[C@]3(O)[C@@H](O)C1C(C)(C)CCC2O (stereo not given in full)
TGI (NCI-H226 lung): 34.9 µM | TGI (MOLT-4 leukemia): > 38.9 µM | TGI (786-0 renal): 25.1 µM | TGI (CAKI-1 renal): 28.5 µM | TGI (U251 CNS): 32.2 µM | TGI (SF-295 CNS): 30.6 µM | TGI (A498 renal): 36.5 µM | TGI (OVCAR-8 ovarian): 20.5 µM | TGI (SK-MEL-5 melanoma): 37 µM

COC12c3ccccc3-c3ccccc3C1[C@@H](C(=O)O)[C@H]2C(=O)O (stereo not given in full)
TGI (NCI-H226 lung): > 10 µM | TGI (MOLT-4 leukemia): > 10 µM | TGI (786-0 renal): > 10 µM | TGI (CAKI-1 renal): > 10 µM | TGI (OVCAR-4 ovarian): > 10 µM | TGI (U251 CNS): > 10 µM | TGI (SF-295 CNS): > 10 µM | TGI (A498 renal): > 10 µM | TGI (OVCAR-8 ovarian): > 10 µM | TGI (SK-MEL-5 melanoma): > 10 µM

Cn1cc(-c2ccc3c(c2)ncn3-c2ccc(CC(=O)Nc3cc(C(C)(C)C)on3)cc2)cn1
GI50 (NCI-H226 lung): 0.173 µM | TGI (NCI-H226 lung): 3.27 µM | GI50 (MOLT-4 leukemia): 1.58 µM | TGI (MOLT-4 leukemia): > 100 µM | GI50 (786-0 renal): 1.48 µM | TGI (786-0 renal): > 84.6 µM | GI50 (CAKI-1 renal): 0.782 µM | TGI (CAKI-1 renal): 2.43 µM | GI50 (OVCAR-4 ovarian): 0.501 µM | TGI (OVCAR-4 ovarian): 19.1 µM | GI50 (U251 CNS): 2.93 µM | TGI (U251 CNS): > 42.7 µM | GI50 (SF-295 CNS): 1.26 µM | TGI (SF-295 CNS): > 38.8 µM | GI50 (A498 renal): 0.122 µM | TGI (A498 renal): 0.461 µM | GI50 (OVCAR-8 ovarian): 3.16 µM | TGI (OVCAR-8 ovarian): > 43.3 µM | GI50 (SK-MEL-5 melanoma): 2.5 µM | TGI (SK-MEL-5 melanoma): 15.5 µM

NCCCNCCCNc1nc2ccccc2c2[nH]c3ccccc3c12
GI50 (NCI-H226 lung): 0.125 µM | TGI (NCI-H226 lung): 1.6 µM | GI50 (MOLT-4 leukemia): 0.0252 µM | TGI (MOLT-4 leukemia): 3.62 µM | GI50 (786-0 renal): 0.0975 µM | TGI (786-0 renal): 1.56 µM | GI50 (CAKI-1 renal): 0.458 µM | TGI (CAKI-1 renal): 2.31 µM | GI50 (OVCAR-4 ovarian): 0.198 µM | TGI (OVCAR-4 ovarian): 1.39 µM | GI50 (U251 CNS): 0.0938 µM | TGI (U251 CNS): 1.32 µM | GI50 (SF-295 CNS): 0.0664 µM | TGI (SF-295 CNS): 1.61 µM | GI50 (A498 renal): 0.995 µM | TGI (A498 renal): 2.44 µM | GI50 (OVCAR-8 ovarian): 0.0346 µM | TGI (OVCAR-8 ovarian): 4.3 µM | GI50 (SK-MEL-5 melanoma): 0.362 µM | TGI (SK-MEL-5 melanoma): 1.81 µM

COc1ccccc1NS(=O)(=O)c1cc(C(C)(C)C)ccc1OCCOc1ccc(C(C)(C)C)cc1S(=O)(=O)Nc1ccccc1OC
TGI (NCI-H226 lung): > 100 µM | TGI (MOLT-4 leukemia): > 100 µM | TGI (786-0 renal): > 100 µM | TGI (CAKI-1 renal): > 100 µM | TGI (OVCAR-4 ovarian): > 100 µM | TGI (U251 CNS): > 100 µM | TGI (SF-295 CNS): > 100 µM | TGI (A498 renal): > 100 µM | TGI (OVCAR-8 ovarian): > 100 µM | TGI (SK-MEL-5 melanoma): > 100 µM

CCN(CC)c1ccc(/C=C/C2=[N+](C)c3ccccc3C2(C)C)cc1
GI50 (NCI-H226 lung): 0.992 µM | TGI (NCI-H226 lung): 18.7 µM | GI50 (MOLT-4 leukemia): 0.557 µM | TGI (MOLT-4 leukemia): > 100 µM | GI50 (786-0 renal): 0.653 µM | TGI (786-0 renal): 13.6 µM | GI50 (CAKI-1 renal): 0.852 µM | TGI (CAKI-1 renal): 12.6 µM | GI50 (OVCAR-4 ovarian): 0.292 µM | TGI (OVCAR-4 ovarian): 29.7 µM | GI50 (U251 CNS): 0.201 µM | TGI (U251 CNS): 21.6 µM | GI50 (SF-295 CNS): 0.374 µM | TGI (SF-295 CNS): 22.2 µM | GI50 (A498 renal): 1.65 µM | TGI (A498 renal): 12.2 µM | GI50 (OVCAR-8 ovarian): 0.442 µM | TGI (OVCAR-8 ovarian): > 100 µM | GI50 (SK-MEL-5 melanoma): 0.28 µM | TGI (SK-MEL-5 melanoma): 1.31 µM

S=c1nc(/C=C/c2ccc(Cl)c(Cl)c2)[nH][nH]1
TGI (NCI-H226 lung): > 100 µM | TGI (MOLT-4 leukemia): > 100 µM | TGI (786-0 renal): > 100 µM | GI50 (CAKI-1 renal): 70 µM | TGI (CAKI-1 renal): > 100 µM | GI50 (OVCAR-4 ovarian): 65.5 µM | TGI (OVCAR-4 ovarian): > 100 µM | TGI (U251 CNS): > 100 µM | TGI (SF-295 CNS): > 100 µM | TGI (A498 renal): > 100 µM | TGI (OVCAR-8 ovarian): > 100 µM | TGI (SK-MEL-5 melanoma): > 100 µM

CC1(C)CCC(CN2CCN(c3ccc(C(=O)NS(=O)(=O)c4ccc(NCC5CCOCC5)c([N+](=O)[O-])c4)c(Oc4cnc5[nH]ccc5c4)c3)CC2)=C(c2ccc(Cl)cc2)C1
GI50 (NCI-H226 lung): 2.36 µM | TGI (NCI-H226 lung): 6.9 µM | GI50 (MOLT-4 leukemia): 2.15 µM | TGI (MOLT-4 leukemia): 5.27 µM | GI50 (786-0 renal): 3.54 µM | TGI (786-0 renal): 12.5 µM | GI50 (CAKI-1 renal): 2.91 µM | TGI (CAKI-1 renal): 10.7 µM | GI50 (OVCAR-4 ovarian): 3.53 µM | TGI (OVCAR-4 ovarian): 20.4 µM | GI50 (U251 CNS): 2.9 µM | TGI (U251 CNS): 11.5 µM | GI50 (SF-295 CNS): 2.35 µM | TGI (SF-295 CNS): 7.42 µM | GI50 (A498 renal): 1.58 µM | TGI (A498 renal): 4.43 µM | GI50 (OVCAR-8 ovarian): 3.22 µM | TGI (OVCAR-8 ovarian): 16.5 µM | GI50 (SK-MEL-5 melanoma): 1.67 µM | TGI (SK-MEL-5 melanoma): 3.09 µM

COc1ccc2c(c1)C(=O)/C(=C/c1ccc(OCC(=O)c3ccc(Cl)cc3)cc1)O2
GI50 (NCI-H226 lung): 12.2 µM | TGI (NCI-H226 lung): 37.1 µM | GI50 (MOLT-4 leukemia): 3.03 µM | TGI (MOLT-4 leukemia): 12.8 µM | GI50 (786-0 renal): 21.7 µM | TGI (786-0 renal): 47.2 µM | GI50 (CAKI-1 renal): 16.4 µM | TGI (CAKI-1 renal): 90.1 µM | GI50 (OVCAR-4 ovarian): 13.3 µM | TGI (OVCAR-4 ovarian): 36.7 µM | GI50 (U251 CNS): 15.5 µM | TGI (U251 CNS): 35.3 µM | GI50 (SF-295 CNS): 30.9 µM | TGI (SF-295 CNS): > 100 µM | GI50 (A498 renal): 48.9 µM | TGI (A498 renal): > 100 µM | GI50 (OVCAR-8 ovarian): 42.4 µM | TGI (OVCAR-8 ovarian): > 100 µM | GI50 (SK-MEL-5 melanoma): 17.2 µM | TGI (SK-MEL-5 melanoma): 59.3 µM
